Laboratory results published in patent US10052326B1, “Antihepatotoxic agents” (KING SAUD UNIVERSITY, priority 2017, dated 2018).

Legend:
[1] = test system: CCl4-induced hepatotoxicity; experiment: Determination of total protein (TP) in CCl4-intoxicated rats; assay type: in vivo, Wistar albino rats; settings: liver tissue; for Total Protein: n = 6, mean
Protocol: (§1) Animals and study design: Wistar albino rats (180-200 g) were obtained from the Experimental Animal Care Center of the College of Pharmacy, King Saud University, Riyadh. Animals were maintained on standard chow diet and housed in polycarbonate cages in a room free from any source of chemical contamination, artificially illuminated (12 h dark/light cycle) and thermally controlled (25±2° C.) at the animal facility. All animals received humane care in compliance with the guidelines of the Ethics Committee of the Experimental Animal Care Society, College of Pharmacy, King Saud University, Riyadh, Saudi Arabia. After a one-week acclimatization period, animals were randomly allocated into 5 groups and treated as follows: group (1), untreated control; and groups 2, 3, 4, and 5 received 0.25 mL of CCl4 in liquid paraffin (1:1) 1.25 mL/kg body weight intraperitoneally (IP). Group 2 was administered only CCl4. Groups 3 and 4 received DHBP-2 (10 mg/kg) and (20 mg/kg/day) orally for 2 weeks, respectively. Rats in group 5 were treated with (10 mg/kg) orally with silymarin for similar days. The blood was collected by cardiac puncture after 24 hours following the administration of CCl4, allowed to clot, and the serum was then separated. After collecting the blood, the animals were sacrificed using ether anesthesia. The rat livers were dissected out and used for biochemical estimations and histological assessment.
Determination of total protein (TP): Total protein was estimated by the kit method, supplied by Crescent Diagnostics, Jeddah, Saudi Arabia. The absorbance of this complex at 546 nm is proportional to the protein concentration. […]

[2] = test system: CCl4-induced hepatotoxicity; experiment: Estimation of serum marker enzymes and bilirubin in CCl4-intoxicated rats; assay type: in vivo, Wistar albino rats; settings: 20 mg/kg orally for 2 weeks before CCl4, vs CCl4 group
Protocol: as §1
Estimation of marker enzymes: Serum glutamate oxaloacetate transaminase (SGOT/AST), serum glutamate pyruvate transaminase (SGPT/ALT) (Reitman S. A. et al., Am. J. Clin. Pathol. 1957, 28 (1), 56-63), alkaline phosphatase (ALP), gamma-glutamyl transferase (GGT) and bilirubin were determined using Reflotron Plus Analyzer and Roche kits (Roche Diagnostics GmbH, Mannheim, Germany) (King E. J. et al., Practical Clinical Biochemistry, H. Varley, Ed., CBS publishers, New Delhi, India, 1988).

[3] = test system: mice; experiment: Acute toxicity test, oral administration; assay type: in vivo; settings: in 0.5% CMC, observation up to 14 days
Protocol: Acute toxicity test: The acute toxicity test was performed on mice, for oral administration. DHPB-2 was dissolved in 0.5% CMC (carboxymethylcellulose) in water and administered at various doses, ranging from ([…]), to different groups of mice. The animals were observed continuously for 1 h and then at half hourly intervals for 4 h on the first day for clinical signs and symptoms of toxicity, and further up to 72 h followed by 14 days, for any mortality.

[4] = test system: CCl4-induced hepatotoxicity; experiment: Estimation of hepatic non-protein sulfhydryls (NP-SH) in CCl4-intoxicated rats; assay type: in vivo, Wistar albino rats; settings: liver tissue; for NP-SH: n = 6, mean
Protocol: as §1
Estimation of non-protein sulfhydryls (NP-SH): Hepatic non-protein sulfhydryls were measured according to the method of Sedlak and Lindsay et. al., Analytical Biochemistry C, 1968, 25, 192-205. The livers were homogenized in ice-cold 0.02 mmol/L ethylenediaminetetraacetic acid (EDTA). The absorbance was measured within 5 min. of addition of 5,5′-dithio-bis(2-nitrobenzoic acid) (DTNB) at 412 nm against a reagent blank.

[5] = test system: CCl4-induced hepatotoxicity; experiment: Determination of malondialdehyde (MDA) in liver tissue of CCl4-intoxicated rats; assay type: in vivo, Wistar albino rats
Protocol: as §1
Determination of malondialdehyde (MDA): The method reported by (Utley H. C. et al., Archives of Biochemistry Biophysics, 1967, 260, 521-531) was followed. Briefly, the liver tissues were removed, and tissue was homogenized in 0.15 M KCl (at 4° C.; Potter-Elvehjem type C homogenizer) to give a 10% w/v homogenate. The absorbance of the solution was then read at 532 nm. The content of malondialdehyde (nmol/g wet tissue) was then calculated, by reference to a standard curve of malondialdehyde solution.

[6] = test system: CCl4-induced hepatotoxicity; experiment: Serum lipid profile in CCl4-intoxicated rats; assay type: in vivo, Wistar albino rats; settings: 20 mg/kg, two week pretreatment before CCl4
Protocol: as §1

[7] = test system: CCl4-induced hepatotoxicity in hepatocytes of rats; experiment: Histopathological evaluation of liver of CCl4-intoxicated rats; assay type: in vivo, Wistar albino rats; settings: light micrographs, hematoxylin and eosin
Protocol: as §1, with “The rat livers were dissected out and used for biochemical estimations and histological assessment.” left out

**Q.** For `O=C1NC=C(C(=O)c2ccc3c(c2)OCCO3)C(c2ccc([N+](=O)[O-])cc2)N1` (centres unmarked) [DHPB-2, 4-(4-Nitrophenyl)-5-(2,3-dihydro-1,4-benzodioxin-6-ylcarbonyl)-3,4-dihydro-pyrimidin2(1H)-one], which “TP level (in words)” value ([1]; 20 mg/kg, vs CCl4 group) is on record?
**A.** The value was “significantly enhanced”.

**Q.** And the “Total Protein” value ([1]; dose 10 mg/kg + CCl4)?
**A.** The value was 38.11 g/L.

**Q.** And the “Total Protein” value ([1]; dose 20 mg/kg + CCl4)?
**A.** Its value is 74.03 g/L.

**Q.** What about the ALP level [2] of the same compound?
**A.** Its ALP level is “significant decrease”.

**Q.** And the ALT level [2]?
**A.** The ALT level was “significant decrease”.

**Q.** What about the AST level [2] of the same compound?
**A.** The AST level was “significant decrease”.

**Q.** What about the GGT level [2] of the same compound?
**A.** Its GGT level is “significant decrease”.

**Q.** What about the bilirubin level [2] of the same compound?
**A.** Its bilirubin level is “significant decrease”.

**Q.** And the “dose up to which no toxicity symptoms and no morbidity were observed” value [3]?
**A.** Its value is “up to 500 mg/kg”.

**Q.** And the “NP-SH level (in words)” value ([4]; 20 mg/kg, vs CCl4 group)?
**A.** The value was “significantly enhanced”.

**Q.** What about the NP-SH ([4]; dose 10 mg/kg + CCl4) of the same compound?
**A.** Its NP-SH is 4.30 nmol/g.

**Q.** What about the NP-SH ([4]; dose 20 mg/kg + CCl4) of the same compound?
**A.** The NP-SH was 6.16 nmol/g.

**Q.** What about the “level of MDA (in words)” value ([5]; 20 mg/kg, vs CCl4 group) of the same compound?
**A.** Its value is “significant reduction”.

**Q.** What about the MDA ([5]; dose 10 mg/kg + CCl4, n = 6, mean) of the same compound?
**A.** Its MDA is 6.84 nmol/g.

**Q.** What about the MDA ([5]; dose 20 mg/kg + CCl4, n = 6, mean) of the same compound?
**A.** Its MDA is 1.59 nmol/g.

**Q.** And the HDL cholesterol level [6]?
**A.** The HDL cholesterol level was “significantly improved”.

**Q.** And the LDL cholesterol level [6]?
**A.** The LDL cholesterol level was “significantly reduced”.

**Q.** And the VLDL cholesterol level [6]?
**A.** Its VLDL cholesterol level is “significantly reduced”.

**Q.** And the cholesterol level [6]?
**A.** The cholesterol level was “significantly reduced”.

**Q.** What about the triglycerides level [6] of the same compound?
**A.** The triglycerides level was “significantly reduced”.

**Q.** What about the “histopathological assessment of the liver” value ([7]; 10 mg/kg/day oral pretreatment) of the same compound?
**A.** Its value is “marked improvement in liver parenchyma”.

**Q.** What about the “histopathological assessment of the liver” value ([7]; 20 mg/kg/day oral pretreatment) of the same compound?
**A.** Its value is “marked improvement in liver parenchyma”.

**Q.** With `CCOc1ccc(C2NC(=O)NC=C2C(=O)c2ccc3c(c2)OCCO3)cc1` (centres unmarked) [DHPB-6, 4-(4-Ethoxyphenyl)-5-(2,3-dihydro-1,4-benzodioxin-6-ylcarbonyl)-3,4-dihydro-pyrimidin-2(1H)-one] as the compound, how does the melting point read?
**A.** The melting point was 210 to 212 °C.
